From patent US5104859A, “Continuous administration of adenosine to reduce pulmonary vascular resistance” (priority 1990, dated 1992)
Entries after “also recorded” stand apart in the source; their conditions may differ. Like-named read-outs stand apart in the source and are kept apart here.

Experiments:
[1] = system: oxygen consumption and lactate; assay: Oxygen contents, oxygen consumption and lactate during controlled hypotension; assay type: in vivo, human
Experimental: The correct position was verified by x-ray.
The hemoglobin concentration was determined spectrophotometrically. […] Scand., 120: 171-76 (1984). […] (London), 313: 351-67 (1981). […] Arterial levels of dipyridamole were determined by HPLC. J. Chromatogr., 162: 98-103 (1979). […] Scand. Clin. Lab. Invest., 27:15-19 (1971).
The mean hypotensive period was 32±8 min.
Oxygen content was derived from the formula SO2*× 1.34×Hb+PO2× […]. Foex et al., Br. J. Anesth., 42: 803-4 (1970). The arteriovenous oxygen content difference (AVDO2) was determined and used to calculate total oxygen consumption (VO2) as the product of AVDO2 and QT. *SO2 =Oxygen saturation.
Oxygen contents, consumptions and lactate concentrations in nine patients before, during and 30 minutes after controlled hypotension are summarized in Table III.

[2] = system: blood pressure; assay: Control of hypertensive crisis during surgery; assay type: in vivo, human; conditions: about 0.1 to about 0.2 mg/kg/min
Experimental: Continuous infusion of adenosine can also be employed to control hypertensive crises occurring during surgery. Such crises can occur, for example, as a result of release of catecholamines during surgery on pheochromocytoma--a tumor characterized by the presence of catecholamine--which can cause pulmonary edema and death. At present, this situation is treated prophylactically by pre-administration of alpha- and beta-adrenoceptor blockers or vasodilators, but the effect is often insufficient. […] Amounts of adenosine which are effective in controlling such hypertensive crises will depend on the degree of hypertension. However, as a general rule they are about half of the amounts found useful for controlled hypotension, i.e., in the range of from about 0.1 to about 0.2 mg adenosine per kilogram of body weight per minute.

[3] = Plasma adenosine and metabolite concentrations during cardiopulmonary bypass (HPLC); conditions: in vivo; for concentration: human, iv
Experimental: In six cases the plasma adenosine levels were determined by high performance liquid chromatography (HPLC) (Fredholm and Sollevi, J. Physiol. (London), 313: 351-67 (1981) in arterial and in venous (venous lines to the oxygenator) blood. The adenosine metabolites inosine, hypoxanthine and uric acid were also determined by HPLC. The samples were collected as previously described (Sollevi, Acta. Physiol. Scand., 121: 165-72 (1984) at the intervals of 10, 20, 40 and 80 minutes during CPB and 20 minutes after CPB.
Statistical significance (controls v. adenosine group) was determinted with Student's t-test for unpaired data. For significance within the groups the Wilcoxon Rank Sum test was used. p […] 0.05 was regarded as significant.

[4] = Solubility of adenosine; assay type: physicochemical; conditions: for solubility: read-out: solubility limit
[5] = system: pulmonary vascular resistance; conditions: systemic vasodilator doses
[6] = human, in vivo
[7] = system: mean arterial blood pressure; conditions: dogs, cited from earlier work
[8] = system: cardiovascular system; assay: General activity profile of adenosine by continuous infusion; conditions: for tachyphylaxis / rebound hypertension (words): hypotension
[9] = Control 2, 30 min after hypotension

Nc1ncnc2c1ncn2[C@@H]1O[C@H](CO)[C@@H](O)[C@H]1O [adenosine]
decrease in AVDO2 [1]: 37±5% | decrease in cerebral AVDO2 [1]: 37±13% | decrease of VO2 [1]: 13±4% | Arterial lactate concentration (La) [1, 9]: 1.82 ± 0.20 mmol per liter | Arterial oxygen tension (PaO2) [1, 9]: 93.0 ± 5.2 mmHg | Jugular arteriovenous lactate content difference (AVDj La) [1, 9]: -0.06 ± 0.04 mmol per liter | Jugular arteriovenous oxygen content difference (AVDj O2) [1, 9]: 74.9 ± 7.7 ml. per liter | Total arteriovenous oxygen content difference (AVDT O2) [1, 9]: 46.8 ± 3.2 ml per liter | Total oxygen consumption (VT O2) [1, 9]: 235 ± 16 ml per mm. | arterial lactate concentration ([1]; during / after hypotension): not affected; also recorded: minor increase | Arterial lactate concentration (La) ([1]; during adenosine): 1.73 ± 0.20 mmol per liter | Arterial oxygen tension (PaO2) ([1]; during adenosine): 97.5 ± 9.0 mmHg | Jugular arteriovenous lactate content difference (AVDj La) ([1]; during adenosine): -0.05 ± 0.05 mmol per liter | Jugular arteriovenous oxygen content difference (AVDj O2) ([1]; during adenosine): 58.1 ± 14.1 ml. per liter | Total arteriovenous oxygen content difference (AVDT O2) ([1]; during adenosine): 29.3 ± 2.5 ml per liter | Total oxygen consumption (VT O2) ([1]; during adenosine): 193 ± 16 ml per mm. | arterial oxygen tension ([1]; during hypotension): remained unchanged | arterio-jugular lactate content difference ([1]; during hypotension): unaltered | blood pressure in catecholamine-induced hypertensive crisis [2]: rapidly restore blood pressure to normal | concentration [3]: 2000 to 10000 nM | concentration ([3]; 20 min): 400 ± 100 nM | Arterial concentration [3]: 0.3 ± 0.1 µM | arterial levels [3]: approximately doubled | solubility limit ([4]; b421 prints mg/ml): 5.5-6 milligrams per milliliter | solubility ([4]; b421 prints mg/ml): 5500 to 6000 µg/mL | solubility [4]: ~20 mM | normal pulmonary vascular resistance [5]: negligible or at most, minor effect | symptoms in awake patient at higher doses [6]: facial flushing, neck and chest oppression, palpitation and increased rate of respiration | mean arterial pressure with adenosine after dipyridamole ([7]; 50 ug/kg/minute adenosine): 40 mm/Hg | adenosine dose required for induction of hypotension without dipyridamole ([7]; pilot study, as much as): 5 to 10 mg/kg/min | toxicity ([8]; amounts used in accordance with the invention): essentially non-toxic | after-load and pre-load ([8]; continuous infusion): little or no effect on cardiac pre-load; also recorded: reduce after-load, without having significant effect on pre-load | tachyphylaxis / rebound hypertension (words) [8]: does not cause tachyphylaxis; also recorded: rebound hypertension is avoided | tachyphylaxis / rebound hypertension (words) ([8]; listed as Adenosine): without the occurrence of significant tachyphylaxis | heart rate on after-load reduction ([8]; in vivo): without significantly increasing heart rate
